Data from patent US7524853B2 (Solvay Pharmaceuticals B.V., priority 2003, dated 2009).

Experiments:
Assay type in all cases: cell-based
[1] = molecular target: T1, 17β-hydroxysteroid dehydrogenase type 2 (17β-HSD type 2) (Homo sapiens, UniProt P37059); assay: Inhibition of 17β-HSD type 2 in MCF-7 cells stably expressing the isoenzyme (tritium labeled estradiol conversion, HPLC); conditions: MCF7, MCF-7 cells expressing 17β-HSD type 2, 2 nM tritium labeled estradiol; for inhibition at 1 µM: 1 μM test compound, read-out: % Inhibition HSD2 1 μM; for inhibition at 10 µM: 10 μM test compound, read-out: % Inhibition HSD2 10 μM
T1 construct: expressed in transfected cells; host or cells: MCF-7
T1 sequence (P37059 1-387): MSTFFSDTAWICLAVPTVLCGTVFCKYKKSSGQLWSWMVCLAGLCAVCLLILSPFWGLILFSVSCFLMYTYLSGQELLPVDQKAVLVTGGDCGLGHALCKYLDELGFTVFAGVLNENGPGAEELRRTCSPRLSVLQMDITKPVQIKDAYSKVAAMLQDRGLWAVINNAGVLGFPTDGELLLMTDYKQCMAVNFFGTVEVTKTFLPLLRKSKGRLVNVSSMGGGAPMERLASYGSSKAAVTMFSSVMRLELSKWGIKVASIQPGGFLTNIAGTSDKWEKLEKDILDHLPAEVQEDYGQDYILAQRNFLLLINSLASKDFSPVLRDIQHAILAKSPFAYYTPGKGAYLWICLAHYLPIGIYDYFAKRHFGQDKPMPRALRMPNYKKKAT
Outline: (§1)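 Compounds are tested at two concentrations on MCF-7 cells carrying a single 17β-HSD isoenzyme, with 2 nM tritiated estrone, estradiol or androstenedione as type 1, 2 or 3 substrate. Percent inhibition reflects lower conversion relative to a compound-free control.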

[2] = molecular target: T2, 17β-hydroxysteroid dehydrogenase type 1 (17β-HSD type 1) (Homo sapiens, UniProt P14061); assay: Inhibition of 17β-HSD type 1 in MCF-7 cells stably expressing the isoenzyme (tritium labeled estrone conversion, HPLC); conditions: MCF7, MCF-7 cells expressing 17β-HSD type 1, 2 nM tritium labeled estrone; for inhibition at 1 µM: 1 μM test compound, read-out: % Inhibition HSD1 1 μM; for inhibition at 10 µM: 10 μM test compound, read-out: % Inhibition HSD1 10 μM
T2 construct: expressed in transfected cells; host or cells: MCF-7
T2 sequence (P14061 1-328): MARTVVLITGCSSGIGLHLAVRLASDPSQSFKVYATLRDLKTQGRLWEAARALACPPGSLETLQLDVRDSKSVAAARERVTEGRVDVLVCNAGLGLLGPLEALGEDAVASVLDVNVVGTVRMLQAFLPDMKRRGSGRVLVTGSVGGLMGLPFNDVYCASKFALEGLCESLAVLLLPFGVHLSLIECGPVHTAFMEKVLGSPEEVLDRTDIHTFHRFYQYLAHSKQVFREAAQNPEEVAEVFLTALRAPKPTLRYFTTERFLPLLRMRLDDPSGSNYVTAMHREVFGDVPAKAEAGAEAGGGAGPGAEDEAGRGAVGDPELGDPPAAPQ
Outline: as §1

[3] = molecular target: T3, 17β-hydroxysteroid dehydrogenase type 3 (17β-HSD type 3) (Homo sapiens, UniProt P37058); assay: Inhibition of 17β-HSD type 3 in MCF-7 cells stably expressing the isoenzyme (tritium labeled androstenedione conversion, HPLC); conditions: MCF7, MCF-7 cells expressing 17β-HSD type 3, 2 nM tritium labeled androstenedione; for inhibition at 1 µM: 1 μM test compound, read-out: % Inhibition HSD3 1 μM; for inhibition at 10 µM: 10 μM test compound, read-out: % Inhibition HSD3 10 μM
T3 construct: expressed in transfected cells; host or cells: MCF-7
T3 sequence (P37058 1-310): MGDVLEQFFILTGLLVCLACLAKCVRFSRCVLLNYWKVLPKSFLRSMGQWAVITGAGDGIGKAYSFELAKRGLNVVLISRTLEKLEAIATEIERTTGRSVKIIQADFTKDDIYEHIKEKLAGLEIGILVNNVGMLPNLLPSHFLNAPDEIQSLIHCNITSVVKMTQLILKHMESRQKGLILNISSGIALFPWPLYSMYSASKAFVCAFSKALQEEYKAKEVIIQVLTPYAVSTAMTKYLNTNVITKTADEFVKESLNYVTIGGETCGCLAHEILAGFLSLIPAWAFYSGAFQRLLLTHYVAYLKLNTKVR
Outline: as §1

Row | Structure (SMILES) | inhibition at 1 µM [1] [%] | inhibition at 10 µM [1] [%] | inhibition at 1 µM [2] [%] | inhibition at 10 µM [2] [%] | inhibition at 1 µM [3] [%] | inhibition at 10 µM [3] [%]
1 | COc1cc(-c2nc3sc4c(c3c(=O)n2Cc2ccco2)CCCC4=O)cc(OC)c1OC [No. 120, 3-Furan-2-ylmethyl-2-(3,4,5-trimethoxylphenyl)-6,7-dihydro-3H,5H-benzo[4,5]thieno[2,3-d]pyrimidine-4,8-dione] | 19.9 | 35.4 | 17.6 | 52.1 | 12.4 | 38.4
2 | COc1cc(-c2nc3sc4c(O)cccc4c3c(=O)n2Cc2ccc(Br)o2)cc(OC)c1OC [No. 122, 3-(5-Bromofuran-2-ylmethy1)-8-hydroxy-2-(3,4,5-trimethoxyphenyl)-3H-benzo[4,5]thieno[2,3-d]pyrimidin-4-one] | 15.4 | 26.2 | 13.9 | 49 | 9.4 | 56.2
3 | COc1cc(-c2nc3sc4c(O)cccc4c3c(=O)n2Cc2ccccc2)c(Cl)c(OC)c1OC [No. 124, 3-Benzyl-2-(2-chloro-3,4,5-trimethoxyphenyl)-8-hydroxy-3H-benzo[4,5]thieno[2,3-d]pyrimidin-4-one] | 0.2 | 17.6 | 40.2 | 73.3 | 8.3 | 42.4
4 | CCC(C)Cn1c(-c2cc(OC)c(OC)c(OC)c2)nc2sc3c(c2c1=O)CCC(Br)C3=O (stereo not drawn) [No. 127, 7-Bromo-3-(2-methylbutyl)-2-(3,4,5-trimethoxyphenyl)-6,7-dihydro-3H,5H-benzo[4,5]thieno[2,3-d]pyrimidine-4,8-dione] | -0.4 | 5.7 | 40.3 | 91.3 | 4.8 | 29.3
5 | CCCCn1c(-c2cccs2)nc2sc3c(c2c1=O)CCCC3=O [No. 134, 3-Butyl-2-thiophen-2-yl-6,7-dihydro-3H,5H-benzo[4,5]thieno[2,3-d]pyrimidine-4,8-dione] | 9.9 | 11.6 | 16 | 7.9 | 17.2 | 21.6
6 | COc1cc(-c2nc3sc4c(c3c(=O)n2CC(C)C)C(Br)CCC4=O)cc(OC)c1OC (stereo not drawn) [No. 135, 5-Bromo-3-isobutyl-2-(3,4,5-trimethoxyphenyl)-6,7-dihydro-3H,5H-benzo[4,5]thieno[2,3-d]pyrimidine-4,8-dione] | 19.1 | 34.6 | 54 | 96.6 | 21.8 | 93.1
7 | COc1cc(-c2nc3sc4c(OC)cccc4c3c(=O)n2CC(C)C)cc(OC)c1OC [No. 136, 3-Isobutyl-8-methoxy-2-(3,4,5-trimethoxyphenyl)-3H-benzo[4,5]thieno[2,3-d]pyrimidin-4-one] | 23.2 | 8.8 | 3.6 | 8.5 | 3.5 | 11

The remaining lines, values ahead:

Row | inhibition at 1 µM [1] [%] | inhibition at 10 µM [1] [%] | inhibition at 1 µM [2] [%] | inhibition at 10 µM [2] [%] | inhibition at 1 µM [3] [%] | inhibition at 10 µM [3] [%] | Structure (SMILES)
8 | 24.6 | 40.2 | 19.4 | 62.9 | 1.3 | 29.1 | COc1cc(-c2nc3sc4c(c3c(=O)n2Cc2ccccc2)CCC(Cl)C4=O)c(Cl)c(OC)c1OC (stereo not drawn) [No. 123, 3-Benzyl-7-chloro-2-(2-chloro-3,4,5-trimethoxyphenyl)-6,7-dihydro-3H,5H-benzo[4,5]thieno[2,3-d]pyrimidine-4,8-dione]
9 | 11.7 | 19.8 | 34.7 | 49.9 | 10.9 | 21 | CCC(C)Cn1c(-c2cc(OC)c(OC)c(OC)c2)nc2sc3c(c2c1=O)CCCC3 (stereo not drawn) [No. 125, 3-(2-Methylbutyl)-2-(3,4,5-trimethoxyphenyl)-5,6,7,8-tetrahydro-3H-benzo[4,5]thieno[2,3-d]pyrimidin-4-one]
10 | 6.6 | -9 | 27.4 | 59.3 | 8 | 36.3 | CCC(C)Cn1c(-c2cc(OC)c(OC)c(OC)c2)nc2sc3c(c2c1=O)CCCC3=O (stereo not drawn) [No. 126, 3-(2-Methylbutyl)-2-(3,4,5-trimethoxyphenyl)-6,7-dihydro-3H,5H-benzo[4,5]thieno[2,3-d]pyrimidine-4,8-dione]
11 | -4.9 | 0 | 17.9 | 25.9 | 4.7 | 6.3 | CCC(C)Cn1c(-c2cc(OC)c(OC)c(OC)c2Br)nc2sc3c(c2c1=O)CCC(Br)(Br)C3=O (stereo not drawn) [No. 128, 7,7-Dibromo-2-(2-bromo-3,4,5-trimethoxyphenyl)-3-(2-methylbutyl)-6,7-dihydro-3H,5-benzo[4,5]thieno[2,3-d]pyrimidine-4,8-dione]
12 | 23.9 | 53.1 | 46.8 | 85.3 | 34.7 | 78.6 | CCC(C)Cn1c(-c2cc(OC)c(OC)c(OC)c2)nc2sc3c(O)cccc3c2c1=O (stereo not drawn) [No. 129, 8-Hydroxy-3-(2-methylbutyl)-2-(3,4,5-trimethoxyphenyl)-3H-benzo[4,5]thieno[2,3-d]pyrimidin-4-one]
13 | 31.2 | 40.1 | 37.7 | 84.7 | 30.9 | 80.1 | COc1cc(-c2nc3sc4c(c3c(=O)n2CC2CCCO2)CCCC4=O)cc(OC)c1OC (stereo not drawn) [No. 131, 3-(Tetrahydro-furan-2-ylmethyl)-2-(3,4,5-trimethoxyphenyl)-6,7-dihydro-3H,5H-benzo[4,5]thieno[2,3-d]pyrimidine-4,8-dione]
14 | 22.8 | 16.9 | 23.8 | 53.9 | 16.9 | 24.9 | COc1cc(-c2nc3sc4c(c3c(=O)n2CC2CCCO2)CCC(Br)C4=O)c(Br)c(OC)c1OC (stereo not drawn) [No. 132, 7-Bromo-2-(2-bromo-3,4,5-trimethoxyphenyl)-3-(tetrahydrofuran-2-ylmethyl)-6,7-dihydro-3H,5H-benzo[4,5]thieno[2,3-d]pyrimidine-4,8-dione]
15 | 6.8 | 24.3 | 18.2 | 58.4 | 18.7 | 37.7 | COc1cc(-c2nc3sc4c(O)cccc4c3c(=O)n2CC2CCCO2)c(Br)c(OC)c1OC (stereo not drawn) [No. 133, 2-(2-Bromo-3,4,5-trimethoxyphenyl)-8-hydroxy-3-(tetrahydrofuran-2-ylmethyl)-3H-benzo[4,5]thieno[2,3-d]pyrimidin-4-one]
16 | 28.1 | 32.9 | 35 | 76 | 19.3 | 49.8 | COc1cc(-c2nc3sc4c(c3c(=O)n2Cc2ccccc2)C(Br)CCC4=O)cc(OC)c1OC (stereo not drawn) [No. 137, 3-Benzyl-5-bromo-2-(3,4,5-trimethoxyphenyl)-6,7-dihydro-3H,5H-benzo[4,5]thieno[2,3-d]pyrimidine-4,8-dione]
17 | 25.7 | 24.8 | 20.6 | 21.5 | 6.8 | 23 | COc1cc(-c2nc3sc4c(OC)cccc4c3c(=O)n2Cc2ccccc2)cc(OC)c1OC [No. 138, 3-Benzyl-8-methoxy-2-(3,4,5-trimethoxyphenyl)-3H-benzo[4,5]thieno[2,3-d]pyrimidin-4-one]
